In BindingDB's records for doi:10.1021/acs.jmedchem.3c01572 (China Pharmaceutical University, 2023) one finds IC50 data, which are given here for six compounds.

The target in assay [1] is Neuropilin-1 (Homo sapiens) (UniProt O14786). In words: Inhibition of [125I]-VEGF-A165 binding to NRP1 (unknown origin) transfected in HUVECs incubated for 2 hrs by plate reader analysis.
In assay [2] the target is Cyclin-dependent kinase 4/Cyclin D1. The assay is described as follows: Inhibition of CDK4/Cyclin D1 (unknown origin).

SMILES strings stand for the structures. pIC50: −log10 of the molar value. Some results are limits rather than exact numbers.

Sequence of Neuropilin-1 (Homo sapiens) (O14786 whole entry, looked up): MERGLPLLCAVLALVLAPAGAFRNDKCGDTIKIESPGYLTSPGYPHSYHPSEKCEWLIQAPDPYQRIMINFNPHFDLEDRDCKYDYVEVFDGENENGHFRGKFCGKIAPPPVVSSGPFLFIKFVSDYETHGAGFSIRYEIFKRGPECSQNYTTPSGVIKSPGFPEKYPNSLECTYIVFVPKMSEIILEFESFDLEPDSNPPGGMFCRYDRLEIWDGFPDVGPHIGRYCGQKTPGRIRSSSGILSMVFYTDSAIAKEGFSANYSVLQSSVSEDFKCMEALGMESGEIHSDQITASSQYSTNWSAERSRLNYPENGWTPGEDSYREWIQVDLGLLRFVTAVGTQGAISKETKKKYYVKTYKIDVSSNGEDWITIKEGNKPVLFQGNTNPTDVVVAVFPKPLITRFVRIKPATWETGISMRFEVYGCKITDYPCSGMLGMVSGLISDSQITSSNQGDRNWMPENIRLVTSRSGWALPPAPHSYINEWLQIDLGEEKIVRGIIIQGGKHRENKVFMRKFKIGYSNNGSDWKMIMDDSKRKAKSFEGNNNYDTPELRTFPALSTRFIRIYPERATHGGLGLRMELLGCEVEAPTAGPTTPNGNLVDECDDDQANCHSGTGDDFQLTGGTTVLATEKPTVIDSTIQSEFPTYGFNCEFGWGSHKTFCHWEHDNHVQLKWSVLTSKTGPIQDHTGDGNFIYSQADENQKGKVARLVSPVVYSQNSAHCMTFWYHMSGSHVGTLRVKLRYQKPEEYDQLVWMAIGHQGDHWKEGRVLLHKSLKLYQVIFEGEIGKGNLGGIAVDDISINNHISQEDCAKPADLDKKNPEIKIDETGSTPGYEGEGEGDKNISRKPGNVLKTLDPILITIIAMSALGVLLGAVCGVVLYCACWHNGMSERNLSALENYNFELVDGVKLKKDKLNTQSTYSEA

Compound `COc1ccc(/C=C\c2cc(OC)c(OC)c(OC)c2)cc1NC(=O)CCCCC(=O)N[C@@H](CCCNC(=N)N)C(=O)O` had a pIC50 in assay [1] of 5.05.

Take `COc1ccc(/C=C\c2cc(OC)c(OC)c(OC)c2)cc1NC(=O)CCC(=O)N[C@@H](CCCNC(=N)N)C(=O)O`: the negative logarithm of the IC50 (pIC50) in assay [2] is less than 5.00; in assay [1], 6.07.

In assay [1], `COc1ccc(/C=C\c2cc(OC)c(OC)c(OC)c2)cc1NC(=O)CCCC(=O)N[C@@H](CCCNC(=N)N)C(=O)O` showed a pIC50 of 5.20.

For `COc1ccc(/C=C\c2cc(OC)c(OC)c(OC)c2)cc1NC(=O)/C=C/C(=O)N[C@@H](CCCNC(=N)N)C(=O)O`, the pIC50 in assay [1] was 5.41.

As for `NC(N)=NCCC[C@H](NC(=O)c1sccc1NS(=O)(=O)c1cccc2nsnc12)C(=O)O` [(S)-2-(3-(benzo[c][1,2,5]thiadiazole-4-sulfonamido)thiophene-2-carboxamido)-5-guanidinopentanoic acid], the pIC50 in assay [1] is 5.54.

In the case of `COc1ccc(/C=C\c2cc(OC)c(OC)c(OC)c2)cc1NC(=O)CCCCCCC(=O)N[C@@H](CCCNC(=N)N)C(=O)O`, in assay [1], the pIC50 was 4.82.
